According to patent publication US11807624B2, “Substituted pyrimidinones as agonists of the APJ receptor” (AMGEN INC., priority 2018, dated 2023):

How the values were obtained:
human APJ receptor = human APJ receptor (Homo sapiens (Human), UniProt P35414); experiment: [35S]GTPγS binding assay (hAPJ SPA); assay type: biochemical; details: membranes from CHO cells stably expressing human APJ receptor, read-out: Activity hAPJ SPA EC50 IP
Description: [^35S]GTPγS Binding The human APJ receptor was cloned by polymerase chain reaction and the gene encoding the receptor was subcloned in pFLAG-CMV™-3 expression vector (Sigma, Saint Louis, Mo. USA) in-house at Amgen. A GTPγS binding assay was performed on membranes prepared from CHO cells stably expressing human APJ receptor. The optimum experimental conditions for the concentrations of GDP, MgCl2, and NaCl in the assay buffer were initially determined. […] Incubation was at RT for 90 min and the microplate was read using a ViewLux™ ultra HTS Microplate Imager (PerkinElmer, Inc.). All the results presented are means of several independent experiments and analyzed by non-linear regression methods using the commercially available program Prism (GraphPad, San Diego, Calif.) providing the EC50 values detailed in Table 3.

heart failure rats = experiment: Cardiac function in heart failure rats in vivo; parameters: species or system rat; details: captopril alone, acute settings
Source text: The interaction between […] (ACE2) and Apelin biology is complicated. To investigate the interaction between the Apelin-APJ and ACE signalling pathways, we examined the improvement in cardiac function with APJ small molecule agonists in the presence of ACE inhibitor captopril in heart failure rats in vivo. […] However, in the presence of an APJ agonist, there was a shift in potency to the left with marked improvement in contractility and ejection fraction without changes in heart rate. These findings provide a new reference for the understanding of the regulation of ACE2 for the renin angiotensin aldosterone system (RAAS), independent of AT1R signaling and offer new potential drug targets for the treatment of diseases such as hypertension and heart failure. This work clearly establishes that combination of an agonist of the APJ receptor with an ARB such as losartan and/or with an ACE inhibitor such as captopril which may play an important role in providing greater efficacy in treating heart failure patients, for example in improving contractility and ejection fraction without changing the heart rate.

[1] = target: human APJ-AT1R (angiotensin Type 1) double stable CHO cell line (Homo sapiens (Human), UniProt P35414); experiment: IP1 accumulation (TR-FRET), APJ-AT1R double stable CHO cell line; assay type: cell-based; details: in the presence of AngII and APJ small molecule agonists
Description: (§1) Single and double stable recombinant cell lines were generated for human APJ and the AT1R receptor in CHO K1 cells tagged either with FLAG or hemagglutinin (HA) tag. Briefly, the CHO-K1 APJ/AT1R cells were seeded in culture medium of DMEM-F12 and 10% FBS at a density of 15 k/well in a 96 well plate overnight. The next day, the culture medium was replaced with medium containing no serum for 4 hours. The compound AngII at a range of concentrations (1 pM-10 μM) with or without different concentrations of APJ agonists were diluted in stimulation buffer and added to the cell plate. The plate was sealed and incubated for 1 hour. This was followed by addition of IP-d2 conjugate followed by europium cryptate antibody conjugate into the wells. The plate was sealed, followed with incubation for 2 hours at RT. Time-resolved fluorescence resonance energy (TR-FRET) at 620 nm and 665 nm was measured after 2 horns with an Envision reader. The signal ratios and delta F were calculated and the amount of IP1 produced was inversely proportional to the TR-FRET ratio, 665/620 nm.

isolated cardiomyocyctes = details: isolated cardiomyocytes, exogenous apelin; cited from earlier work
[2] = target: human AT1R receptor expressed in the CHO cell line (Homo sapiens (Human), UniProt P30556); details: AT1R expressed alone, no APJ expression
Sequence of human AT1R receptor expressed in the CHO cell line (P30556 whole entry): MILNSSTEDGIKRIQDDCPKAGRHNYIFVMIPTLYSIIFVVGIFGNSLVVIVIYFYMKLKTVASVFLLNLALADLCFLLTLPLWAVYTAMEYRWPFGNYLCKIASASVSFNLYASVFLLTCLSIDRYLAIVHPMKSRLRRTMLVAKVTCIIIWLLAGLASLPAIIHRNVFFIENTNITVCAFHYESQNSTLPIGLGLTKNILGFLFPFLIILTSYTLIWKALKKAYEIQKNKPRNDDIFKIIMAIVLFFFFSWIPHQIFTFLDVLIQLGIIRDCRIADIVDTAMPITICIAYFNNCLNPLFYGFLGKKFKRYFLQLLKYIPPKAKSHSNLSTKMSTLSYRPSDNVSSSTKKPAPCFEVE
Description: as §1

Sequence of human APJ receptor (P35414 whole entry): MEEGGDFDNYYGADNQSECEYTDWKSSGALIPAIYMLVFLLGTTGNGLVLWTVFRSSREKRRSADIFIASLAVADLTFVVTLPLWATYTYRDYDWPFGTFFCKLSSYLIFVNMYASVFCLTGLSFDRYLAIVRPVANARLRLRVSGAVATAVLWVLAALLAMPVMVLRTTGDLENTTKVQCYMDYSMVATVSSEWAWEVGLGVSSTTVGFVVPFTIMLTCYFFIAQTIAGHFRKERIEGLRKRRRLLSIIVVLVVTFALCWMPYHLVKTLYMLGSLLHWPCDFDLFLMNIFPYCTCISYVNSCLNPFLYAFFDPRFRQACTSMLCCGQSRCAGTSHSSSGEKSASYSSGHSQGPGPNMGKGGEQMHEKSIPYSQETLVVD
Sequence of human APJ-AT1R (angiotensin Type 1) double stable CHO cell line (P35414 whole entry): as above

## CCCCc1nc(O)c(NS(=O)(=O)C[C@H](C)c2ncc(F)cn2)c(=O)n1-c1c(OC)cccc1OC (single isomer, unassigned) [Example 4.5, (R)-N-(2-butyl-1-(2,6-dimethoxyphenyl)-4-hydroxy-6-oxo-1,6-dihydropyrimidin-5-yl)-2-(5-fluoropyrimidin-2-yl)propane-1-sulfonamide or (S)-N-(2-butyl-1-(2,6-dimethoxyphenyl)-4-hydroxy-6-oxo-1,6-dihydropyrimidin-5-yl)-2-(5-fluoropyrimidin-2-yl)propane-1-sulfonamide]
Human APJ receptor
  EC50: 11 nM

## CCCCc1nc(O)c(NS(=O)(=O)C[C@@H](C)c2ncc(F)cn2)c(=O)n1-c1c(OC)cccc1OC (single isomer, unassigned) [Example 4.6, (S)-N-(2-butyl-1-(2,6-dimethoxyphenyl)-4-hydroxy-6-oxo-1,6-dihydropyrimidin-5-yl)-2-(5-fluoropyrimidin-2-yl)propane-1-sulfonamide or (R)-N-(2-butyl-1-(2,6-dimethoxyphenyl)-4-hydroxy-6-oxo-1,6-dihydropyrimidin-5-yl)-2-(5-fluoropyrimidin-2-yl)propane-1-sulfonamide]
Human APJ receptor
  EC50: 20 nM

## CCCCc1nc(O)c(NS(=O)(=O)[C@H]2CCCN(c3ncc(F)cn3)C2)c(=O)n1-c1c(OC)cccc1OC (single isomer, unassigned) [Example 4.7, (S)-N-(2-butyl-1-(2,6-dimethoxyphenyl)-4-hydroxy-6-oxo-1,6-dihydropyrimidin-5-yl)-1-(5-fluoropyrimidin-2-yl)piperidine-3-sulfonamide or (R)-N-(2-butyl-1-(2,6-dimethoxyphenyl)-4-hydroxy-6-oxo-1,6-dihydropyrimidin-5-yl)-1-(5-fluoropyrimidin-2-yl)piperidine-3-sulfonamide]
Human APJ receptor
  EC50: 78 nM

## C[C@H](CS)C(=O)N1CCC[C@H]1C(=O)O [Captopril, captopril]
Heart failure rats
  improvement in contractility or ejection fraction: does not show a marked improvement in contractility or ejection fraction acutely

## CCCCc1nc(O)c(NS(=O)(=O)CCc2ncc(F)cn2)c(=O)n1-c1c(OC)cccc1OC [Example 4.0, N-(2-Butyl-1-(2,6-dimethoxyphenyl)-4-hydroxy-6-oxo-1,6-dihydropyrimidin-5-yl)-2-(5-fluoropyrimidin-2-yl)ethane-1-sulfonamide]
Human APJ receptor
  EC50: 30 nM

## CCCCc1nc(O)c(NS(=O)(=O)C(C)C)c(=O)n1-c1c(OC)cccc1OC [Example 4.1, N-(2-butyl-1-(2,6-dimethoxyphenyl)-4-hydroxy-6-oxo-1,6-dihydropyrimidin-5-yl)propane-2-sulfonamide]
Human APJ receptor
  EC50: 745 nM

## CCCCc1nc(O)c(NS(=O)(=O)[C@@H](C)[C@H](C)c2ncc(F)cn2)c(=O)n1-c1c(OC)cccc1OC [Example 4.2, (2S,3R)-N-(2-butyl-1-(2,6-dimethoxyphenyl)-4-hydroxy-6-oxo-1,6-dihydropyrimidin-5-yl)-3-(5-fluoropyrimidin-2-yl)butane-2-sulfonamide]
Human APJ receptor
  EC50: 27 nM

## CCCCc1nc(O)c(NS(=O)(=O)Cc2ccccc2)c(=O)n1-c1c(OC)cccc1OC [Example 4.3, N-(2-butyl-1-(2,6-dimethoxyphenyl)-4-hydroxy-6-oxo-1,6-dihydropyrimidin-5-yl)-1-phenylmethanesulfonamidesulfonamide]
Human APJ receptor
  EC50: 194 nM

## CCCCc1nc(O)c(NS(=O)(=O)c2ccccc2)c(=O)n1-c1c(OC)cccc1OC [Example 4.4a, N-(2-butyl-1-(2,6-dimethoxyphenyl)-4-hydroxy-6-oxo-1,6-dihydropyrimidin-5-yl)benzenesulfonamide]
Human APJ receptor
  EC50: 244 nM

## CCCCc1nc(O)c(NS(=O)(=O)CCc2ccccc2)c(=O)n1-c1c(OC)cccc1OC [Example 4.4b, N-(2-butyl-1-(2,6-dimethoxyphenyl)-4-hydroxy-6-oxo-1,6-dihydropyrimidin-5-yl)-2-phenylethane-1-sulfonamide]
Human APJ receptor
  EC50: 193 nM

## CCCCc1nc(O)c(NS(=O)(=O)[C@@H](C)[C@H](OC)c2ncc(C)cn2)c(=O)n1-c1c(OC)cccc1OC [Example 4.8, (1R,2S)-N-(2-butyl-1-(2,6-dimethoxyphenyl)-4-hydroxy-6-oxo-1,6-dihydropyrimidin-5-yl)-1-methoxy-1-(5-methylpyrimidin-2-yl)propane-2-sulfonamide]
Human APJ receptor
  EC50: 86 nM

## CCCCc1nc(O)c(NS(=O)(=O)C2CCCCC2)c(=O)n1-c1c(OC)cccc1OC [Example 4.9, N-(2-butyl-1-(2,6-dimethoxyphenyl)-4-hydroxy-6-oxo-1,6-dihydro-5-pyrimidinyl)cyclohexanesulfonamide]
Human APJ receptor
  EC50: 193 nM

## COc1cccc(OC)c1-n1c(C2CCCC2)nc(O)c(NS(=O)(=O)CCc2ncc(F)cn2)c1=O [Example 4.17, N-[2-cyclopentyl-1-(2,6-dimethoxyphenyl)-4-hydroxy-6-oxo-pyrimidin-5-yl]-2-(5-fluoropyrimidin-2-yl)ethanesulfonamide]
Human APJ receptor
  EC50: 2.8 nM

## COc1cccc(OC)c1-n1c(-c2ccccc2)nc(O)c(NS(=O)(=O)CCc2ncc(F)cn2)c1=O [Example 4.24, N-[1-(2,6-dimethoxyphenyl)-4-hydroxy-6-oxo-2-phenyl-pyrimidin-5-yl]-2-(5-fluoropyrimidin-2-yl)ethanesulfonamide]
Human APJ receptor
  EC50: 1.5 nM

## CCCCc1nc(Cl)c(CO)n1Cc1ccc(-c2ccccc2-c2nn[nH]n2)cc1 [losartan]
[1]
  effect of AT1R blockade on APJ agonist-induced cooperativity: relieved this cooperativity and resulted in synergistic effects of enhancing the efficacy of the APJ receptor

## apelin
Isolated cardiomyocyctes
  increase in sarcomere shortening: up to 140%

## pyr apelin-13
[2]
  cooperativity on AngII-induced IP1 response: no positive cooperativity observed
